Positions of bridges follow the written chain, without caps; N, C: chain ends. Non-standard residues stand in square brackets, D forms with d. Residues, ends and D or L forms follow the SMILES beside them. Chains are numbered I, II in the order given. No end group written: not given here. Cha = N[C@@H](CC1CCCCC1)C(=O)O; βAla = NCCC(=O)O

Data set [1] in a line: Mouse tolerance of peptide dosing. Format: in vivo. Particulars: 4 i.p. injections 8 hours apart, 1.38 mg each, total 5.52 mg per mouse. How it is done:
Mice were given a series of 4 intraperitoneal injections, spaced 8 hours apart, of peptide AE120 dispersed in a poloxamer formulation containing 2.9% DMSO. Each injection delivered 1.38 mg of peptide in 200 μL of formula, so that each mouse received a total of 5.52 mg over the 24-hour study period.

Data set [2] in a line: Peptide stability in mouse serum ex vivo, read out by ATF cell-binding inhibition. The data set is classed as in vitro ADME. Particulars: 10% mouse serum, up to 24 hours, 37° C. How it is done:
Mouse blood was collected from anaesthetised mice (femal nu/nu-META/Bom (Bomholtgaard, Ry, Denmark)) by cardiac puncture. The blood samples were allowed to clot for 30 min at room temperature, followed by centrifugation at 1,000×g for 10 min at 20° C., and the sera were sterile filtered using 0.8 μm/0.2 μm filters (Acrodisc PF, Gelman Science, MI) and then stored at 4° C. until use. The peptide antagonists were added to fresh pooled mouse serum at the indicated concentrations (FIG. 5) and incubated at 37° C. for different periods, between 0 hours and 24 hours. Serum incubated samples were diluted 1:10 in binding buffer (0.1% bovine serum albumin and 5 mM Hepes in Eagles MEM supplemented with Glutamax-1, pH 7.4). Subsequently, cell binding experiments in the presence of ^125I-labelled human ATF were performed in duplicates as above, by preincubating MDA-MB-231 BAG cells at 37° C. 15 min with the 1:10 diluted serum incubated samples ± peptides. In parallel, peptides diluted in binding buffer alone were included as controls.
AE118 and AE78 (for comparison) were incubated at 37° C. in the presence of 10% mouse serum for different time intervals, up to 24 hours. The incubation mixtures were tested for their ability to inhibit binding of radio-labelled human uPA amino terminal fragment (ATF) to monolayer cultures of human MDA-MB-231 breast cancer cells, as described in Example 7.

Data set [3] has as its target T1, neuramimidase-treated human suPAR (soluble recombinant uPAR) (Homo sapiens, UniProt Q03405).
T1 construct: A soluble recombinant variant of human uPAR (suPAR) was expressed in Chinese hamster ovary (dhfr) cells; made in house; host or cells: Chinese hamster ovary (dhfr) cells
In words: Biacore Binding Assay (surface plasmon resonance), ligand binding to immobilised suPAR. The note with it: for koff: Biacore, 5° C., immobilised suPAR, read-out: kdiss (dissociation rate constant, off-rate). How it is done:
Association rate constants (kass), dissociation rate constants (kdiss) and equilibrium binding constants (kd) for various synthetic peptides and receptor binding derivatives of human uPA were determined by surface plasmon resonance (R. Karlsson et al. (1991) J. Immunol. Meths. 145:229–240) using a BIAcore2000™ instrument (Pharmacia Biosensor, Uppsala, Sweden). Due to the low isoelectric point of uPAR (pI≈4.5) terminal sialic acid residues were removed from its N-linked carbohydrates to facilitate chemical immobilisation on the sensor chip. This was accomplished by incubating purified suPAR (1 mg/ml in 50 mM phosphate, 150 mM NaCl, pH 7.4) with 5 μg/ml neuramimidase for 4 hours at 37° C. […] Coupling of the neuramimidase-treated suPAR to a BIAcore sensor chip was achieved by injection of 20 μg/ml suPAR in 10 mM sodium acetate pH 5.0 for 6 minutes at a flow rate of […] per minute using a carboxymethylated dextran matrix (CM5 sensor chip) preactivated with N-hydroxysuccinimide/N-ethyl-N′-[3-([…])propyl]carbodiimide according to the manufacturer's recommendations. Approximately 1,500–2,000 resonance units (RU) were immobilised by this procedure (corresponding to 1–2 ng suPAR/mrn^2).
Sensorgrams (RU versus time) were recorded (FIG. 2) at a flow rate of 10 μl per min at 5° C. using several different concentrations of the ligand (synthetic peptides, uPA, the amino-terminal fragment (ATF) of uPA, or the growth factor domain (GFD) of uPA) in the range of 10 to 1000 nM in running buffer (10 mM HEPES, 150 mM NaCl, 3 mM EDTA (pH 7.4) including 0.005% surfactant P-20). Stock solutions of peptides from combinatorial chemistry were made in DMSO (10 mg peptide/ml DMSO). The sensor chip was regenerated at the end of each run by injection of 0.1 M acetic acid, 0.5 M NaCl. Data obtained from parallel mock coupled flow cells (subjected to the coupling procedure in the presence of buffer only) served as blank sensorgrams for subtraction of changes in bulk refractive index. The sensorgrams obtained were analysed by non-linear least squares fitting using BIAevaluation 2.0 software (Pharmacia Biosensor, Uppsala, Sweden) assuming single-site association and dissociation models.
Purified human suPAR (1 mg/ml in 50 mM phosphate, 150 mM NaCl, pH 7.4) was incubated with 5 μg/ml neuramimidase for 4 hours at 37° C.
In order to couple the neuramimidase-treated suPAR to a BIAcore sensor chip, 20 μg/ml suPAR in 10 mM sodium acetate (pH 5.0) was injected for 6 minutes at a flow rate of 5 μl per minute using a carboxymethylated dextran matrix (CM5 sensor chip), thereby immobilising approximately 1,500–2,000 resonance units (RU), which correspond to 1–2 ng suPAR/mm^2. The CM5 sensor chip was preactivated with N-hydroxysuccinimide/N-ethyl-N′-[3-([…])propyl]carbodiimide in accordance with the manufacturer's recommendations.
Surface plasmon resonance sensorgrams (RU versus time) were recorded at a flow rate of 10 μl per min at 5° C. using several different concentrations of the ligand (i.e. the relevant peptide or GFD) in the range from 10 to 1000 nM in running buffer (10 mM HEPES, 150 mM NaCl, 3 mM EDTA (pH 7.4) including 0.005% surfactant P-20).
The sensor chip was regenerated at the end of each run by injection of 0.1 M acetic acid, 0.5 M NaCl.
Data from parallel mock coupled flow cells (subjected to the coupling procedure in the presence of buffer only) served as blank sensorgrams for subtraction of changes in bulk refractive index.
The obtained sensorgrams were analysed by non-linear least squares fitting using BIAevaluation 2.0 software (Pharmacia Biosensor, Uppsala, Sweden) assuming single-site ssociation and dissociation models.
Background: Surface plasmon resonance follows binding to a sensor surface in real time, without labels.

The nature of data set [4]: Pharmacokinetic experiment: functional peptide in mouse serum after i.p. injection. Particulars: 62.5 mg/kg, 1 to 24 hours. Format: in vivo. How it is done:
Female nu/nu-META/Bom mice were injected intraperitoneally (i.p) with a solution of the peptide AE 120 (6.25 mg/ml in 0.5% (w/v) poloxamer 237 in PBS, pH 7.3) at a dose of 62.5 mg/kg mouse weight. At different time points between 1 hour and 24 hours, blood was collected from anaesthetised mice by cardiac puncture. The blood samples were allowed to clot for 30 min at room temperature, followed by centrifugation at 1,000×g for 10 min at 20° C., and the sera were stored frozen at −80° C. prior to assay. The presence of functional peptide antagonists in serum was determined by diluting the serum samples 1:10 with binding buffer (0.1% bovine serum albumin and 5 mM Hepes in Eagles MEM supplemented with Glutamax-1, pH 7.4) and analysing the samples in cell binding experiments with MDA-MB-231 BAG cells and ^125I-labelled human ATF as described in Example 7. As an internal standard, AE120 was added exogenously to pooled mouse sera at final concentrations of 12.5 nM, 25 nM, 125 nM and 250 nM.

The target in data set [5] is uPAR-ATF interaction (Homo sapiens, UniProt Q03405). The note with it: read-out: apparent inhibition constant; cited from earlier work.
Sequence of uPAR-ATF interaction (Q03405 23-305 limits assumed): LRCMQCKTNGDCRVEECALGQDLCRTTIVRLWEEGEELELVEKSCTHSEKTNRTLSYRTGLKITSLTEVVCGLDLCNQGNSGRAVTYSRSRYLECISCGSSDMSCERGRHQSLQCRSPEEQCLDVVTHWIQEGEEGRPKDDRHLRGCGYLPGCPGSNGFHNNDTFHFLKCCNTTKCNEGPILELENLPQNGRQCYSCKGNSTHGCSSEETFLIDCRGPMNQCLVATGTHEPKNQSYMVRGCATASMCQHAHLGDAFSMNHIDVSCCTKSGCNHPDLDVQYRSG

Regarding `CC(C)C[C@H](NC(=O)[C@H](Cc1ccc(O)cc1)NC(=O)[C@@H](CCCNC(=N)N)NC(=O)[C@@H](CO)NC(=O)[C@H](Cc1ccccc1)NC(=O)[C@H](CC1CCCCC1)NC(=O)[C@@H](N)CC(=O)O)C(=O)N[C@@H](Cc1c[nH]c2ccccc12)C(=O)N[C@@H](CO)C(=O)NCC(=O)NCCCC[C@H](NC(=O)CCNC(=O)CNC(=O)[C@H](CO)NC(=O)[C@H](Cc1c[nH]c2ccccc12)NC(=O)[C@H](CC(C)C)NC(=O)[C@H](Cc1ccc(O)cc1)NC(=O)[C@@H](CCCNC(=N)N)NC(=O)[C@@H](CO)NC(=O)[C@H](Cc1ccccc1)NC(=O)[C@H](CC1CCCCC1)NC(=O)[C@@H](N)CC(=O)O)C(=O)O` [AE120, α-[DChaFsrYLWSGβA]-ε-[DChaFsrYLWSG]-K] (I: H-D[Cha]F[dS][dR]YLWSG[βAla]K-OH / II: H-D[Cha]F[dS][dR]YLWSG; amide I:12-II:C), the “tolerance: effect on behaviour or well-being” value in data set [1] is “no visible sign of any effect on the behaviour or well-being of the mice”. Also, the “ability to inhibit ATF binding after incubation in mouse serum (stability)” value in data set [2] is recorded as “slight reduction”. For the same compound, in data set [3], the koff was found to be 3e-05 s⁻¹. Moreover, the “activity of peptide antagonist in mouse serum after dosing” value in data set [4] is given as “retained its activity in mouse serum for several hours”.

With “AEPMPHSLNFSQYLWYT [AE78, reference compound]”, in data set [2], the “ability to inhibit ATF binding after incubation in mouse serum (stability)” value was “lost the majority of its inhibitory activity”. For the same compound, the koff in data set [3] worked out at 0.0101 s⁻¹. Also, the Relative kdiss in data set [3] (relative to the Growth Factor Domain of uPA (GFD = 1.0)) was 72.1. In addition, in data set [5], the Ki is 10 nM.

The values are drawn from patent publication US7026282B1, “Peptide antagonists of the human urokinase receptor and method for selecting them” (Cancerforskningsfonden AF 1989 (Fonden Til Fremme AF …, priority 1998, dated 2006).
